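Five compound concentrations were applied to cells in 96-well plates for 48 hours; endpoints were derived by simple linear interpolation of the resulting dose-response curve. TGI marks complete inhibition of growth.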
Key:
Experiment in all cases: inhibition of tumour cell growth, NCI panel, 48 h
[1] = tested on: 786-0 renal
[2] = tested on: A498 renal
[3] = tested on: ACHN renal
[4] = tested on: DU-145 prostate
[5] = tested on: HCC-2998 colon
[6] = tested on: HT29 colon
[7] = tested on: KM12 colon
[8] = tested on: LOX IMVI melanoma
[9] = tested on: MDA-MB-435
[10] = tested on: MDA-N
[11] = tested on: NCI-H226 lung
[12] = tested on: NCI-H460 lung
[13] = tested on: OVCAR-3 ovarian
[14] = tested on: OVCAR-4 ovarian
[15] = tested on: RXF 393 renal
[16] = tested on: SK-MEL-5 melanoma
[17] = tested on: SW-620 colon
[18] = tested on: UO-31 renal
[19] = tested on: SK-MEL-2 melanoma

Structure (SMILES): Cc1c(CCOC=O)c(=O)[nH]c2nncn12
- TGI [1]: > 100 µM
- TGI [2]: > 100 µM
- TGI [3]: > 100 µM
- TGI [4]: > 100 µM
- TGI [5]: > 100 µM
- TGI [6]: > 100 µM
- TGI [7]: > 100 µM
- TGI [8]: > 100 µM
- TGI [9]: > 100 µM
- TGI [10]: > 100 µM
- TGI [11]: > 100 µM
- TGI [12]: > 100 µM
- TGI [13]: > 100 µM
- TGI [14]: > 100 µM
- TGI [15]: > 100 µM
- TGI [16]: > 100 µM
- TGI [17]: > 100 µM
- TGI [18]: > 100 µM

Structure (SMILES): CC1(C)CC[C@]2(C)CC=C3[C@]4(C)CC[C@H]5C(C)(C)C(=O)CC[C@]5(C)[C@H]4CC[C@@]3(C)[C@H]2C1
- TGI [1]: > 100 µM
- TGI [2]: > 100 µM
- TGI [3]: > 100 µM
- TGI [4]: > 100 µM
- TGI [5]: > 100 µM
- TGI [6]: > 100 µM
- TGI [7]: > 100 µM
- TGI [8]: > 100 µM
- TGI [9]: > 100 µM
- TGI [10]: > 100 µM
- TGI [11]: > 100 µM
- TGI [13]: > 100 µM
- TGI [14]: > 100 µM
- TGI [15]: > 100 µM
- TGI [19]: > 100 µM
- TGI [16]: > 100 µM
- TGI [17]: > 100 µM
- TGI [18]: > 100 µM

Structure (SMILES): CC(N)C(C)Cc1ccccc1 (configuration not stated)
- TGI [1]: > 100 µM
- TGI [2]: > 100 µM
- TGI [3]: > 100 µM
- TGI [4]: > 100 µM
- TGI [5]: > 100 µM
- TGI [6]: > 100 µM
- TGI [7]: > 100 µM
- TGI [8]: > 100 µM
- TGI [9]: > 100 µM
- TGI [10]: > 100 µM
- TGI [11]: > 100 µM
- TGI [12]: > 100 µM
- TGI [13]: > 100 µM
- TGI [14]: > 100 µM
- TGI [15]: > 100 µM
- TGI [16]: > 100 µM
- TGI [17]: > 100 µM
- TGI [18]: > 100 µM

Structure (SMILES): CC1(c2nc3cc(Cl)c(Cl)cc3[nH]2)CCC(CO)C(C)(C)O1 (configuration not stated)
- TGI [1]: > 100 µM
- TGI [3]: > 100 µM
- TGI [4]: > 100 µM
- TGI [5]: > 100 µM
- TGI [6]: 34.2 µM
- TGI [7]: 38.6 µM
- TGI [8]: > 100 µM
- TGI [9]: > 100 µM
- TGI [10]: > 100 µM
- TGI [11]: 56.6 µM
- TGI [13]: 74.3 µM
- TGI [14]: > 100 µM
- TGI [15]: > 100 µM
- TGI [19]: 90.4 µM
- TGI [16]: 27.1 µM
- TGI [17]: > 100 µM
- TGI [18]: 39.9 µM

Structure (SMILES): COC(=O)C1(Cc2ccc3c(c2)CCC3)Cc2ccc3c(c2C1O)CCC3 (configuration not stated)
- TGI [1]: 28.6 µM
- TGI [2]: 25.1 µM
- TGI [3]: 26.7 µM
- TGI [4]: 46.4 µM
- TGI [5]: 30.9 µM
- TGI [6]: 31.6 µM
- TGI [7]: 38.9 µM
- TGI [8]: 26.2 µM
- TGI [9]: 27.5 µM
- TGI [10]: 29.8 µM
- TGI [11]: 45 µM
- TGI [12]: 54.4 µM
- TGI [13]: 27.7 µM
- TGI [14]: 27.7 µM
- TGI [15]: 31 µM
- TGI [16]: 22.1 µM
- TGI [17]: 30.2 µM
- TGI [18]: 22.5 µM

Structure (SMILES): COc1cc(-c2oc3c(OC)c(O)c(OC)c(O)c3c(=O)c2OC)cc(O)c1OC
- TGI [1]: > 100 µM
- TGI [2]: 75.4 µM
- TGI [3]: > 100 µM
- TGI [4]: > 100 µM
- TGI [5]: > 100 µM
- TGI [6]: > 100 µM
- TGI [7]: > 100 µM
- TGI [8]: > 100 µM
- TGI [9]: 77.6 µM
- TGI [10]: 36.2 µM
- TGI [11]: > 100 µM
- TGI [13]: 63.3 µM
- TGI [14]: > 100 µM
- TGI [15]: 79.4 µM
- TGI [19]: > 100 µM
- TGI [16]: 55.6 µM
- TGI [17]: > 100 µM
- TGI [18]: > 100 µM

Structure (SMILES): O=C1Nc2cccc(Cl)c2/C1=C\c1c(Cl)nc2sccn12
- TGI [1]: 24.6 µM
- TGI [2]: > 100 µM
- TGI [3]: 29.4 µM
- TGI [4]: > 100 µM
- TGI [5]: > 100 µM
- TGI [6]: > 100 µM
- TGI [7]: > 100 µM
- TGI [8]: > 100 µM
- TGI [9]: > 100 µM
- TGI [10]: > 100 µM
- TGI [12]: > 100 µM
- TGI [13]: > 100 µM
- TGI [15]: 29.6 µM
- TGI [19]: 30.2 µM
- TGI [16]: > 100 µM
- TGI [17]: > 100 µM
- TGI [18]: > 100 µM

Structure (SMILES): CC(=O)OCC1OC(n2c3c(c(-c4ccco4)c(C#N)c2=S)CCC3)C(OC(C)=O)C(OC(C)=O)C1OC(C)=O (configuration not stated)
- TGI [1]: > 100 µM
- TGI [3]: > 100 µM
- TGI [4]: > 100 µM
- TGI [5]: > 100 µM
- TGI [6]: > 100 µM
- TGI [7]: > 100 µM
- TGI [8]: > 100 µM
- TGI [9]: > 100 µM
- TGI [10]: > 100 µM
- TGI [12]: > 100 µM
- TGI [13]: > 100 µM
- TGI [14]: > 100 µM
- TGI [15]: 86.9 µM
- TGI [19]: > 100 µM
- TGI [16]: > 100 µM
- TGI [17]: > 100 µM
- TGI [18]: > 100 µM

Structure (SMILES): CC(C)(C)c1ccc(-c2nc3ccc([N+](=O)[O-])cc3c(=O)o2)cc1
- TGI [1]: > 100 µM
- TGI [2]: 73.9 µM
- TGI [3]: 90.5 µM
- TGI [4]: > 100 µM
- TGI [5]: 33 µM
- TGI [6]: 69.4 µM
- TGI [7]: 69.9 µM
- TGI [8]: 29.9 µM
- TGI [9]: 77 µM
- TGI [10]: > 100 µM
- TGI [12]: > 100 µM
- TGI [13]: 81.1 µM
- TGI [14]: 75.2 µM
- TGI [15]: 96.7 µM
- TGI [19]: 47 µM
- TGI [16]: 74.9 µM
- TGI [17]: > 100 µM
- TGI [18]: 93.8 µM

Structure (SMILES): C[C@H](Nc1c(O)c2c(c(O)c1Cl)C(=O)C=CC2=O)C(=O)Nc1ccc([N+](=O)[O-])cc1
- TGI [1]: 3.23 µM
- TGI [2]: 4.8 µM
- TGI [3]: 9.31 µM
- TGI [4]: 3.22 µM
- TGI [5]: 8.05 µM
- TGI [6]: 8.57 µM
- TGI [7]: 3.66 µM
- TGI [9]: 3.04 µM
- TGI [10]: 6.67 µM
- TGI [11]: 6.84 µM
- TGI [12]: 6.29 µM
- TGI [13]: 2.75 µM
- TGI [14]: 3.14 µM
- TGI [15]: 3.04 µM
- TGI [19]: 9.1 µM
- TGI [16]: 3.14 µM
- TGI [17]: 6.49 µM

Structure (SMILES): O=c1[nH]c(Nc2cccc(C(F)(F)F)c2)nc2nc[nH]c12
- TGI [1]: > 100 µM
- TGI [3]: > 100 µM
- TGI [4]: > 100 µM
- TGI [5]: > 100 µM
- TGI [6]: > 100 µM
- TGI [7]: > 100 µM
- TGI [8]: > 100 µM
- TGI [9]: > 100 µM
- TGI [10]: > 100 µM
- TGI [11]: > 100 µM
- TGI [13]: > 100 µM
- TGI [14]: > 100 µM
- TGI [15]: > 100 µM
- TGI [19]: > 100 µM
- TGI [16]: > 100 µM
- TGI [17]: > 100 µM

From PubChem BioAssay (NCI)
